Test results from patent US20190290656A1, “PT(IV) PRODRUGS” (YISSUM RESEARCH DEVELOPMENT COMPANY OF THE HEBREW …, priority 2015, published 2019).
Like-named read-outs stand apart in the source and are kept apart here.

Key:
BxPC3 spheroids = experiment: 3D spheroid APH assay, BxPC3; format: cell-based, human; settings: 72 h, APH test
Excerpt: (§1) Acid phosphatase (APH) assay. A modified APH assay, which is based on quantification of cytosolic acid phosphatase activity, was used for determining cell viability in spheroids. […] Triplicate cultures were established for each treatment. […] Evaluation was based on means from at least four independent experiments.
(§2) In order to improve the predictive capacity of the in vitro assays, we tested the activity in three three-dimensional (3D) cell cultures; human colon cancer cells, HCT-15, and human pancreatic cancer cells, KRAS wild type BxPC3 cells KRAS mutated PSN-1 cells. The cancer spheroids were treated with 3a and 3b for 72 h and the cell viability was assessed by means of the APH assay (Table 6). For comparison purposes, the cytotoxicities of CDDP and OXP were evaluated under the same experimental conditions.

HCT-15 cells = experiment: MTT cytotoxicity assay, HCT-15; format: cell-based, human
Procedure: (§3) Cisplatin (CDDP) and oxaliplatin (OXP) were dissolved just before the experiment in a 0.9% NaCl solution. […]
(§4) Cancer Res. 1988, 48, 589-601]. […] Triplicate cultures were established for each treatment.
(§5) MTT assay. […] Triplicate cultures were established for each treatment.
(§6) The two dimers, 3a and 3b, as well as compounds 1a and 2a were screened against six human cancer cell lines representative of lung (H157), colon (HCT-15), cervical (A431), ovarian (2008) and pancreatic (PSN1) cancers, along with melanoma (A375). Cytotoxicity was evaluated by means of the MTT test after 72 h of treatment and the in vitro antitumor potential of newly synthesized derivatives was compared to that of the reference metallo-drugs CDDP and OXP.

A2780 cells = experiment: MTT cytotoxicity assay, A2780; format: cell-based, human; settings: for IC50: A2780, 72 h exposure, MTT, read-out: IC50 (median growth inhibitory concentration)
Procedure: (§7) Platinum(IV) complexes were dissolved in DMSO to stock solutions of 1 mg/mL just before the experiment, and a calculated amount of drug solution was added to the cell growth medium to a final solvent concentration of 0.5%, which had no discernible effect on cell killing. Cisplatin (CDDP) and oxaliplatin (OXP) were dissolved just before the experiment in a 0.9% NaCl solution.
(§8) Human prostate adenocarcinoma (PC3) cells were obtained from European Collection of Cell Cultures (ECACC, Salisbury, UK). Human ovarian cancer cell lines A2780 and its cisplatin resistant variant, A2780cisR, were kindly provided by Prof.
as §4

PC3 cells = experiment: MTT cytotoxicity assay, PC3; format: cell-based, human; settings: PC3, 72 h exposure, read-out: IC50 (median growth inhibitory concentration)
Procedure: (§9) Cisplatin (CDDP) and oxaliplatin (OXP) were dissolved just before the experiment in a 0.9% NaCl solution.
as §8
(§10) Triplicate cultures were established for each treatment.

H157 cells = experiment: MTT cytotoxicity assay, H157; format: cell-based, human; settings: H157, 72 h
Procedure: as §5, §6

HCT-15 spheroids = experiment: 3D spheroid APH assay, HCT-15; format: cell-based, human; settings: HCT-15 spheroids, 72 h, APH test
Excerpt: as §1, §2

A498 cells = experiment: MTT cytotoxicity assay, A498; format: cell-based, human; settings: A498, 72 h exposure, read-out: IC50 (median growth inhibitory concentration)
Procedure: as §7, §8, §4

nine cancer cell lines = experiment: MTT cytotoxicity, over the nine cancer cell lines; settings: for IC50: read-out: average IC50 values for the nine cancer cell lines, mean over nine cell lines, 72 h MTT
BxPC3 cells = experiment: MTT cytotoxicity assay, BxPC3; format: cell-based, human; settings: for IC50: BxPC3, 72 h exposure, MTT, read-out: IC50 (median growth inhibitory concentration)
MCF-7 cells [1] = experiment: MTT cytotoxicity assay, MCF-7; format: cell-based, human; settings: for IC50: MCF-7, 72 h exposure, MTT, read-out: IC50 (median growth inhibitory concentration)
Procedure: as §9, §8, §10

[2] = tested on: Histone deacetylase (HDAC); experiment: Histone deacetylase assay (Fluor-de-Lys) in MCF-7 cells; format: cell-based, human
Procedure: Histone deacetylase activity was determined using Fluor-de-Lys® HDAC fluorometric activity assay kit (Enzo Life Sciences International, Inc., Plymount Meeting, Pa., U.S.A.). […] Fluorescence was measured using a Fluoroskan Ascent FL (Labsystem, Finland) plate reader, with excitation at 360 nm and emission at 460 nm. For comparison purpose, the HDAC activity was also measured in nuclear extracts of MCF-7-treated cells by means of the same fluorometric activity assay kit. In this latter case, MCF-7 nuclear extracts were obtained as follow: cell pellets were re-suspended in lysis buffer [Tris.HCl (10 mM, pH 8.0), KCl (60 mM), EDTA (1.2 mM), DTT (1 mM), PMSF (0.05 mM), NP-40 (0.05%)] and kept on ice for 10 min. Subsequently, samples were centrifuged at 1000 g and re-suspended in the nuclear extraction buffer [Tris.HCl (20 mM, (pH 8.0), NaCl (420 mM), MgCl2 (0.7 mM), EDTA (0.25 mM), glycerol (25%)] for 30 min at 4° C., and then centrifuged at 15000 g for 15 min at 4° C.
The complexes described here were specifically designed to release either VPA of PhB inside the cells in the hope that they will inhibit HDAC activity paving the way for more efficient DNA platination. Thus, in addition to measuring the levels of DNA platination, we also measured the ability of these pro-drugs to inhibit HDAC activity in cells. […] For comparison purposes, the HDAC inhibitory effect determined by tested complexes was also assayed in isolated nuclei of MCF-7 treated cells (FIG. 3B).
The HDAC activity was determined by the Fluor de Lys® Fluorescent Cellular Activity Assay (Enzo Life Sciences).
Also, MCF-7 cells were incubated for 24 h with increasing concentrations of compounds I-VIII and their HDAC activity was determined. The IC50 values for the inhibition of HDAC activity in the cells are depicted in FIG. 3C.

PSN1 cells = experiment: MTT cytotoxicity assay, PSN1; format: cell-based, human; settings: PSN1, 72 h, MTT
Procedure: as §5, §6

A375 cells = experiment: MTT cytotoxicity assay, A375; format: cell-based, human
Procedure: as §3, §4, §5, §6

A549 cells = experiment: MTT cytotoxicity assay, A549; format: cell-based, human; settings: A549, 72 h exposure, MTT; read-out: IC50 (median growth inhibitory concentration)
Procedure: as §9, §8, §10

A2780cisR cells = experiment: MTT cytotoxicity assay, A2780cisR (cisplatin resistant); format: cell-based, human; settings: for IC50: 72 h exposure, MTT, read-out: IC50 (median growth inhibitory concentration); for resistance factor: ratio IC50 resistant (A2780cisR) / sensitive (A2780) cells
Procedure: as §7, §8, §4

PSN-1 spheroids = experiment: 3D spheroid APH assay, PSN-1; format: cell-based, human; settings: PSN-1 spheroids, 72 h, APH test
Excerpt: as §1, §2

A431 cells = experiment: MTT cytotoxicity assay, A431; format: cell-based, human; settings: A431, 72 h
Procedure: as §5, §6

2008 cells = experiment: MTT cytotoxicity assay, 2008; format: cell-based, human; settings: 2008, 72 h, MTT
Procedure: as §5, §6

MCF-7 cells [3] = experiment: Nuclear DNA fragmentation ELISA, MCF-7; format: cell-based, human; settings: MCF-7, 24 h, IC50 concentrations
Excerpt: FIGS. 4A-4C describe: FIG. 4A—Nuclear DNA fragmentation. […] Quantitative estimation of DNA fragmentation was obtained with an ELISA test. Data are the means of five independent experiments. Error bars indicate SD. […] FIG. 4C—Caspase activity. […] Data are the means of at least three independent experiments. Error bars indicate SD.
To gain more insights into the mode of action of newly synthesized Pt(IV) derivatives, compounds 1 and 6 were chosen for further experiments. In particular, their capacity to induce apoptosis against human breast MCF-7 cells treated with equitoxic concentrations (IC50 values) of these drugs was evaluated and compared. Nuclear DNA fragmentation and apoptosome complex formation are critical steps in the apoptotic process. […] Apoptotic cell death induction was confirmed through a Hoechst 33342 staining.

[4] = tested on: Lewis lung carcinoma (LLC); experiment: In vivo efficacy study, Lewis lung carcinoma mouse model; parameters: species or system C57BL mice; settings: daily dose 20 mg kg^-1 orally, day 7-14, LLC in C57BL mice
Procedure: A preliminary in vivo efficacy study was carried out on a mouse model (see Table 3 below):
Lewis lung carcinoma (LLC) was implanted i.m. (2·10^6 cells inoculum) into the right hind leg of 8-week old inbred C57BL mice (24±3 g body weight). Chemotherapy was delayed until the tumor became visible (day 7).

[5] = octanol/water partition, shake-flask method; format: physicochemical
Procedure: To quantify the hydrophobicity of the platinum complexes, partition coefficients (log P) values for octanol/water partition were measured using the shake-flask method.

[6] = HCT-15, 72 h exposure, MTT (Table 1), read-out: IC50 (median growth inhibitory concentration)
[7] = A375, 72 h exposure, MTT (Table 1), read-out: IC50 (median growth inhibitory concentration)

| Compound | IC50 (HCT-15 cells; [6]) | IC50 (A2780 cells) | IC50 (PC3 cells) | IC50 (A498 cells) | IC50 (nine cancer cell lines) | IC50 (BxPC3 cells) | IC50 (MCF-7 cells [1]) | IC50 (A375 cells; [7]) | IC50 (A549 cells) | IC50 (A2780cisR cells; A2780cisR) | resistance factor (A2780cisR cells) | other results |
| --- | --- | --- | --- | --- | --- | --- | --- | --- | --- | --- | --- | --- |
| O=C1[O][Pt]2([NH][C@@H]3CCCC[C@H]3[NH]2)[O]C1=O [OXP, oxaliplatin, reference compound] | 1.15 ± 0.43 µM | 0.52 ± 0.27 µM | 5.24 ± 0.86 µM | 7.94 ± 1.04 µM | 4.9 µM | 4.15 ± 0.93 µM | 3.36 ± 0.2 µM | 6.3 ± 1.11 µM | 1.46 ± 0.31 µM | 4.2 ± 1.6 µM | – | IC50 (BxPC3 spheroids): 75.2 ± 6.91 µM; IC50 (HCT-15 cells; HCT-15, 72 h, MTT (Table 5), read-out: IC50 (μM) ± S.D.): 1.15 ± 0.43 µM; IC50 (H157 cells): 5.99 ± 1.85 µM; IC50 (HCT-15 spheroids): 36.5 ± 3.12 µM; effect on HDAC activity (in words) ([2]; MCF-7, 24 h, IC50 concentrations): not effective in modifying HDAC activity; IC50 (PSN1 cells): 8.25 ± 3.42 µM; IC50 (A375 cells; A375, 72 h, MTT (Table 5), read-out: IC50 (μM) ± S.D.): 6.3 ± 2.01 µM; IC50 (PSN-1 spheroids): 59.7 ± 8.52 µM; IC50 (A431 cells): 3.06 ± 0.88 µM; IC50 (2008 cells): 1.53 ± 0.88 µM |
| CCCC(CCC)C(=O)[O][Pt]([Cl])([Cl])[O]C(=O)C(CCC)CCC.N.N [I, Ctc-Pt(NH3)2(C8H15O2)2Cl2]] | 0.81 ± 0.12 µM | 0.25 ± 0.09 µM | 2.13 ± 0.45 µM | 2.43 ± 0.72 µM | 1.15 µM | 1.13 ± 0.14 µM | 0.91 ± 0.3 µM | 1.25 ± 0.25 µM | 1.12 ± 0.32 µM | 0.3 ± 0.1 µM | 1.2 | times more effective than cisplatin (HCT-15 cells; HCT-15): ~14 fold; fold more potent than cisplatin (A2780 cells; A2780): 11 fold; times higher induction of nucleosome formation compared with cisplatin (MCF-7 cells [3]): 1.5 fold; Average tumor weight (mean ± SD, g) [4]: 0.179 ± 0.07 g; Inhibition of tumor growth (%) [4]: 68.21%; fold more potent than the mono-VPA monoacetato analog (nine cancer cell lines; average of the nine cell lines): 4.6 fold; average fold more potent than cisplatin (nine cancer cell lines; average over cell lines): 8 fold; times more effective/potent than cisplatin (BxPC3 cells; BxPC3): ~10 fold; times more effective/potent than cisplatin (MCF-7 cells [1]; MCF-7): about 19 fold; IC50 for cellular inhibition of HDAC activity (in words) ([2]; MCF-7, 24 h, increasing concentrations): highest inhibitory effect; inhibition of HDAC activity ([2]; MCF-7, 24 h incubation with IC50 concentrations): ~65%; fold more potent/effective than cisplatin (A2780cisR cells; A2780cisR): 46 fold |
| CCCC(CCC)C(=O)[O][Pt]([NH2])([NH2])([Cl])([Cl])[O]C(C)=O [II, Pt(NH3)2Cl2(C2H3O2)(C8H15O2)]] | 6.36 ± 1.03 µM | 1.02 ± 0.6 µM | 7.32 ± 1.24 µM | 4.21 ± 0.95 µM | 4.48 µM | 3.54 ± 0.66 µM | 5.74 ± 1.1 µM | 2.17 ± 0.53 µM | 8.36 ± 1.14 µM | 1.62 ± 0.3 µM | 1.6 | Log P [5]: 0.17 ± 0.02; fold reduction in potency compared with ctc-[Pt(NH3)2(VPA)2Cl2] (nine cancer cell lines; range over cell lines): 1.7-7.9 fold |
